Values after ≈ are worked out from the molar mass of the structure shown.
Tests used:
Test in all cases: MIC and MBC testing, broth microdilution
A. baumannii ATCC 19606 = type: cell-based, Acinetobacter baumannii; conditions: Acinetobacter baumannii; for MIC: ATCC19606, 18 h, read-out: MIC
Description: (§1) The minimum inhibitory concentrations (MICs) and minimum bactericidal concentrations (MBCs) of the synthesized compounds effective against ESKAPE strains, S. aureus clinical isolates, and MRSA were investigated by the broth dilution method. Levofloxacin is a broad-spectrum antibacterial agent that is widely used in the treatment of ESKAPE infections. Therefore, levofloxacin was selected as the positive control for the preliminary activity screening. DMSO (0.1%) was selected as the negative control.
(§2) The minimum inhibitory concentration (MIC) of all synthesized compounds was tested by the broth microdilution method. In brief, compounds dissolved in DMSO were diluted twice continuously in a 96-well plate with MH broth. The ESKAPE pathogens (E. coli ATCC 25922, S. aureus ATCC 29213, K. pneumoniae ATCC 700603, A. baumannii ATCC 19606, P. aeruginosa ATCC 27853, and E. faecium ATCC 35667), clinical S. aureus isolates (LMY45, LMY46, LMY47, and LMY48) and methicillin-resistant Staphylococcus aureus (MRSA-1 and MRSA-2) were cultured in MH broth to logarithmic growth phase and then diluted to 1 × 10^6 CFU/mL in MH broth. Subsequently, the diluted bacterial solution was mixed with the diluted compound solution in a 96-well plate and incubated at 37 °C for a duration of 18 h. The MIC of the compounds was recorded as the lowest concentration at which no visible growth was observed. […] Each concentration was replicated thrice.

[1] = tested on: K. pneumoniae ATCC 700603; type: cell-based, Klebsiella pneumoniae; conditions: Klebsiella pneumoniae, ATCC700603, 18 h, read-out: MIC
Description: as §1, §2

S. aureus ATCC 29213 = type: cell-based, Staphylococcus aureus; conditions: Staphylococcus aureus, ATCC29213, S. aureus ATCC 29213; for MIC: 18 h, read-out: MIC; for MBC: read-out: MBC
Description: as §1, §2

E. faecium ATCC 35667 = type: cell-based, Enterococcus faecium; conditions: Enterococcus faecium, ATCC35667, E. faecium ATCC 35667; for MIC: 18 h, read-out: MIC; for MBC: read-out: MBC
Description: as §1, §2

E. coli ATCC 25922 = type: cell-based, Escherichia coli; conditions: Escherichia coli; for MIC: ATCC25922, 18 h, read-out: MIC
Description: as §1, §2

P. aeruginosa ATCC 27853 = type: cell-based, Pseudomonas aeruginosa; conditions: Pseudomonas aeruginosa; for MIC: ATCC27853, 18 h, read-out: MIC
Description: as §1, §2

[2] = tested on: clinical S. aureus isolate LMY48; type: cell-based, Staphylococcus aureus; conditions: Staphylococcus aureus, LMY48; for MIC: 18 h, read-out: MIC; for MBC: read-out: MBC
Procedure: (§3) Furthermore, the MBC values of the compounds were detected.
as §2, with “h.” for “h. The MIC of the compounds was recorded as the lowest concentration at which no visible growth was observed.”

MRSA-2 = type: cell-based, Staphylococcus aureus; conditions: Staphylococcus aureus, MRSA-2; for MIC: 18 h, read-out: MIC; for MBC: read-out: MBC
Procedure: as §3
as §2, with “h.” for “h. The MIC of the compounds was recorded as the lowest concentration at which no visible growth was observed.”

[3] = tested on: clinical S. aureus isolate LMY47; type: cell-based, Staphylococcus aureus; conditions: Staphylococcus aureus, LMY47; for MIC: 18 h, read-out: MIC; for MBC: read-out: MBC
Procedure: as §3
as §2, with “h.” for “h. The MIC of the compounds was recorded as the lowest concentration at which no visible growth was observed.”

[4] = tested on: clinical S. aureus isolate LMY46; type: cell-based, Staphylococcus aureus; conditions: Staphylococcus aureus, LMY46; for MIC: 18 h, read-out: MIC; for MBC: read-out: MBC
Procedure: as §3
as §2, with “h.” for “h. The MIC of the compounds was recorded as the lowest concentration at which no visible growth was observed.”

[5] = tested on: clinical S. aureus isolate LMY45; type: cell-based, Staphylococcus aureus; conditions: Staphylococcus aureus, LMY45; for MIC: 18 h, read-out: MIC; for MBC: read-out: MBC
Procedure: as §3
as §2, with “h.” for “h. The MIC of the compounds was recorded as the lowest concentration at which no visible growth was observed.”

MRSA-1 = type: cell-based, Staphylococcus aureus; conditions: Staphylococcus aureus, MRSA-1; for MIC: 18 h, read-out: MIC; for MBC: read-out: MBC
Procedure: as §3
as §2, with “h.” for “h. The MIC of the compounds was recorded as the lowest concentration at which no visible growth was observed.”

MIC (A. baumannii ATCC 19606)	MIC [1]	MIC (S. aureus ATCC 29213)	MIC (E. faecium ATCC 35667)	MIC (E. coli ATCC 25922)	MIC (P. aeruginosa ATCC 27853)	MIC [2]	MIC (MRSA-2)	MIC [3]	MIC [4]	MIC [5]	MIC (MRSA-1)	Compound	MBC (S. aureus ATCC 29213)	MBC (E. faecium ATCC 35667)	MBC [2]	MBC (MRSA-2)	MBC [3]	MBC [4]	MBC [5]	MBC (MRSA-1)	also measured
8 µg/mL (≈ 24.2 µM)	> 32 µg/mL	2 µg/mL (≈ 6.05 µM)	2 µg/mL (≈ 6.05 µM)	4 µg/mL (≈ 12.1 µM)	32 µg/mL (≈ 96.8 µM)	1 µg/mL (≈ 3.03 µM)	1 µg/mL (≈ 3.03 µM)	2 µg/mL (≈ 6.05 µM)	1 µg/mL (≈ 3.03 µM)	1 µg/mL (≈ 3.03 µM)	1 µg/mL (≈ 3.03 µM)	[H]/N=C(\N)NN=C1CCCc2cc(OCCCCCCCC)ccc21 [Compound 2E, (E)-2-(6-(octyloxy)-3,4-dihydronaphthalen-1(2H)-ylidene)hydrazine-1-carboximidamide]	2 µg/mL (≈ 6.05 µM)	4 µg/mL (≈ 12.1 µM)	2 µg/mL (≈ 6.05 µM)	2 µg/mL (≈ 6.05 µM)	4 µg/mL (≈ 12.1 µM)	4 µg/mL (≈ 12.1 µM)	4 µg/mL (≈ 12.1 µM)	8 µg/mL (≈ 24.2 µM)	MBC (A. baumannii ATCC 19606; ATCC19606, read-out: MBC): 32 µg/mL (≈ 96.8 µM); MBC (E. coli ATCC 25922; ATCC25922, read-out: MBC): 16 µg/mL (≈ 48.4 µM); MBC (P. aeruginosa ATCC 27853; ATCC27853, read-out: MBC): > 32 µg/mL
> 32 µg/mL	> 32 µg/mL	2 µg/mL (≈ 5.81 µM)	2 µg/mL (≈ 5.81 µM)	> 32 µg/mL	> 32 µg/mL	1 µg/mL (≈ 2.9 µM)	1 µg/mL (≈ 2.9 µM)	2 µg/mL (≈ 5.81 µM)	2 µg/mL (≈ 5.81 µM)	2 µg/mL (≈ 5.81 µM)	2 µg/mL (≈ 5.81 µM)	[H]/N=C(\N)NN=C1CCCc2cc(OCCCCCCCCC)ccc21 [Compound 2F, (E)-2-(6-(nonyloxy)-3,4-dihydronaphthalen-1(2H)-ylidene)hydrazine-1-carboximidamide]	8 µg/mL (≈ 23.2 µM)	4 µg/mL (≈ 11.6 µM)	2 µg/mL (≈ 5.81 µM)	2 µg/mL (≈ 5.81 µM)	8 µg/mL (≈ 23.2 µM)	4 µg/mL (≈ 11.6 µM)	4 µg/mL (≈ 11.6 µM)	2 µg/mL (≈ 5.81 µM)	–
> 32 µg/mL	> 32 µg/mL	2 µg/mL (≈ 5.58 µM)	2 µg/mL (≈ 5.58 µM)	> 32 µg/mL	> 32 µg/mL	2 µg/mL (≈ 5.58 µM)	4 µg/mL (≈ 11.2 µM)	2 µg/mL (≈ 5.58 µM)	4 µg/mL (≈ 11.2 µM)	4 µg/mL (≈ 11.2 µM)	4 µg/mL (≈ 11.2 µM)	[H]/N=C(\N)NN=C1CCCc2cc(OCCCCCCCCCC)ccc21 [Compound 2G, (E)-2-(6-(decyloxy)-3,4-dihydronaphthalen-1(2H)-ylidene)hydrazine-1-carboximidamide]	8 µg/mL (≈ 22.3 µM)	8 µg/mL (≈ 22.3 µM)	4 µg/mL (≈ 11.2 µM)	4 µg/mL (≈ 11.2 µM)	2 µg/mL (≈ 5.58 µM)	8 µg/mL (≈ 22.3 µM)	16 µg/mL (≈ 44.6 µM)	16 µg/mL (≈ 44.6 µM)	–
> 32 µg/mL	> 32 µg/mL	> 32 µg/mL	4 µg/mL (≈ 10.7 µM)	> 32 µg/mL	> 32 µg/mL	4 µg/mL (≈ 10.7 µM)	4 µg/mL (≈ 10.7 µM)	2 µg/mL (≈ 5.37 µM)	2 µg/mL (≈ 5.37 µM)	4 µg/mL (≈ 10.7 µM)	4 µg/mL (≈ 10.7 µM)	[H]/N=C(\N)NN=C1CCCc2cc(OCCCCCCCCCCC)ccc21 [Compound 2H, (E)-2-(6-(undecyloxy)-3,4-dihydronaphthalen-1(2H)-ylidene)hydrazine-1-carboximidamide]	–	8 µg/mL (≈ 21.5 µM)	4 µg/mL (≈ 10.7 µM)	16 µg/mL (≈ 42.9 µM)	16 µg/mL (≈ 42.9 µM)	16 µg/mL (≈ 42.9 µM)	8 µg/mL (≈ 21.5 µM)	16 µg/mL (≈ 42.9 µM)	–

Source: paper PMC12250302, “Synthesis, Antimicrobial Activities, and Model of Action of Novel Tetralone Derivatives Containing Aminoguanidinium Moiety” (International Journal of Molecular Sciences, 2025)
